From publication PMC10267539 (EJNMMI Radiopharmacy and Chemistry, 2023)
Each block holds one compound with its values, some of them ahead of it.

Assays:
[1] = based on toxicity study in Wistar rats
BON-1.SSTR2 = experiment: Clonogenic assay; format: cell-based
[2] = test system: SSTR2 expressing cells (BON-1.SSTR2); experiment: Cell binding and internalization; format: cell-based; details: BON-1.SSTR2, 60 min incubation
[3] = In vitro stability in PBS and serum; format: in vitro ADME; details: 37 °C, after 5 h, starting radiochemical purity 94.3%
CXCR4 [4] = target: CXCR4 (UniProt P61073); experiment: competitive binding assay on cells with a fluorescent ligand
CXCR4 [5] = target: CXCR4 (UniProt P61073); experiment: radioligand binding
[6] = target: glucagon-like peptide-1 (GLP-1) receptor (UniProt P43220); experiment: competitive binding assay on cells
[7] = 37 °C, after 6 h
fibrin = fibrin (UniProt P02679); experiment: binding of the radiolabelled pept
plaque inflammation = experiment: F-18 FDG PET of plaque inflammation (carotid TBR); format: in vivo, human
Procedure: Materials and methods: We retrospectively analyzed F-18 FDG PET scans of patients treated with I-131 rituximab for the first time for relapsed or refractory CD20(+) B cell lymphoma. F-18 FDG PET scans were performed before (PET1), 5 days (PET2), and 1 m (PET3) after the administration of I-131 rituximab. […] TBRs measured in PET1, PET2, and PET3 were designated as TBR1, TBR2, and TBR3, respectively. Statistical analysis was performed using the Wilcoxon-test for comparison between the groups. In addition, we divided patients into 2 groups (patients with higher TBR1 versus equal to or lower TBR1 than the median value of TBR1) and compared TBRs on each PET dataset.

HER2 = target: T1, HER2 (Homo sapiens, UniProt P04626); experiment: Binding by flow cytometry; details: BT-474 / MCF-7, cell line not stated
T1 construct: flow cytometry in BT-474 (high HER2 density) and MCF-7 (low HER2 density); endogenous in cells; host or cells: BT-474 and MCF-7 cells

[8] = target: rat cholecystokinin-2 receptor (CCK2R) (rat) (UniProt P30553); experiment: radioligand binding
[9] = target: human cholecystokinin-2 receptor (CCK2R) (human) (UniProt P32239); experiment: radioligand binding
Sequence of human cholecystokinin-2 receptor (CCK2R) (human) (P32239 whole entry): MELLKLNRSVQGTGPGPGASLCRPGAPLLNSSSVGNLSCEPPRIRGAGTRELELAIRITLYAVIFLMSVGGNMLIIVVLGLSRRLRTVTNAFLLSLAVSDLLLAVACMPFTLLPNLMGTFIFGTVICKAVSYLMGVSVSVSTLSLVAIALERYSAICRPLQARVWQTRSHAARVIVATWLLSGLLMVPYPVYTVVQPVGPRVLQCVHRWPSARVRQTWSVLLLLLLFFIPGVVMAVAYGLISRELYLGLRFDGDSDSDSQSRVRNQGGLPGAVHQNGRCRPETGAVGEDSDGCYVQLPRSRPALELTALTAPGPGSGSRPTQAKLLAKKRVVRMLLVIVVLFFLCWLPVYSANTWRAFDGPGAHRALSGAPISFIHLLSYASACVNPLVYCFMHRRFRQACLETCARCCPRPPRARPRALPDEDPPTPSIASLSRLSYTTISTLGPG

Sequence of glucagon-like peptide-1 (GLP-1) receptor (P43220 24-463): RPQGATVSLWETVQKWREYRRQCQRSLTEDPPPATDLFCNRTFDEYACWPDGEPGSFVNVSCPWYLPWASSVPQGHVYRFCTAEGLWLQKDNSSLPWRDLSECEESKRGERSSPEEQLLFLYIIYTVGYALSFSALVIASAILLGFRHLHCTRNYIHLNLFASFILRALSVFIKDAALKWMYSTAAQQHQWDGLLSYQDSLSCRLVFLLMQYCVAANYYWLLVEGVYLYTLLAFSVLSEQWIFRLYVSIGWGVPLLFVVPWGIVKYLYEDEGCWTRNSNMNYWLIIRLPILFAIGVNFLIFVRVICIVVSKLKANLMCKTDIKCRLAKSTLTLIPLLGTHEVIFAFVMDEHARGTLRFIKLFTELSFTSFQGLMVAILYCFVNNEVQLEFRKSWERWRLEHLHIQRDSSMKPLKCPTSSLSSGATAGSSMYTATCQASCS
Sequence of CXCR4 (P61073 whole entry): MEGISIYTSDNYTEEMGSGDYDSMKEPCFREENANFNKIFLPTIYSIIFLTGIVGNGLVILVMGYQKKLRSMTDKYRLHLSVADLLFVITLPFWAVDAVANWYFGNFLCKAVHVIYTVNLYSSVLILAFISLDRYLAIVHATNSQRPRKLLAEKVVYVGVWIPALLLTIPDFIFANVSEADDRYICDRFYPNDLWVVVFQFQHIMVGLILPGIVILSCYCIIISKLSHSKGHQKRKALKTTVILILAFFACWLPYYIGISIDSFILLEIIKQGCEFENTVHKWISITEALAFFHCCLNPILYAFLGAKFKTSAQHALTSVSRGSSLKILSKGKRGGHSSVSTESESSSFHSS
Sequence of fibrin (P02679 whole entry, looked up): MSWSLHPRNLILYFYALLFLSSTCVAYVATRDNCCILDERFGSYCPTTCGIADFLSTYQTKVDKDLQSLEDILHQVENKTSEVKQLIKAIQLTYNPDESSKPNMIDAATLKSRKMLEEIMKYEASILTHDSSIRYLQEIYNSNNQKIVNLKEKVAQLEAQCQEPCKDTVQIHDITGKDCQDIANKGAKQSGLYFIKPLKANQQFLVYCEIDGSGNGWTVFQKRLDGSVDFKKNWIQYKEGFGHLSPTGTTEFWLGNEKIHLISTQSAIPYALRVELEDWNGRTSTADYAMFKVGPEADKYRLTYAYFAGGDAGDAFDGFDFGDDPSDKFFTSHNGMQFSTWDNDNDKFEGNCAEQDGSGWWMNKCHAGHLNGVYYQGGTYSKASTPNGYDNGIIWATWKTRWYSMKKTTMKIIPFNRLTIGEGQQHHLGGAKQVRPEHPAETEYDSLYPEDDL
Sequence of rat cholecystokinin-2 receptor (CCK2R) (rat) (P30553 whole entry): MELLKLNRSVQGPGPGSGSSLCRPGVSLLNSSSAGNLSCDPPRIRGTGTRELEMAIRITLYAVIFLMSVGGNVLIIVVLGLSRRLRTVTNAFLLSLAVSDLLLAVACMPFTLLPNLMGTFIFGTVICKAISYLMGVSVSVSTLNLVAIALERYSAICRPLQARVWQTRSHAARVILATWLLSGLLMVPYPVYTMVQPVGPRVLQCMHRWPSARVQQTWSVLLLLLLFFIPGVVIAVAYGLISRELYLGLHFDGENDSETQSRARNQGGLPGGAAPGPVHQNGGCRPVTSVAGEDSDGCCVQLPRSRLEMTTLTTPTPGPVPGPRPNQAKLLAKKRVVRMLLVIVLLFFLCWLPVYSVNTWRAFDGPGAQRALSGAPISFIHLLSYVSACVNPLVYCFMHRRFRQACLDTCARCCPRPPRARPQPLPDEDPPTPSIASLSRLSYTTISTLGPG

Compound: CCCC[C@@H](C(=O)N[C@@H](CC(=O)O)C(=O)N[C@@H](Cc1cccc2ccccc12)C(N)=O)N(C)C(=O)[C@H](Cc1c[nH]c2ccccc12)NC(=O)CNC(=O)[C@H](Cc1ccc(O)cc1)NC(=O)[C@H](C)NC(=O)[C@@H](CCC(=O)O)NC(=O)CN1CCN(CC(=O)O)CCN(CC(=O)O)CCN(CC(=O)O)CC1 [DOTA-MGS5]
- maximum dose defined for the first therapeutic use [1]: 100 µg

Compound: C[C@@H](O)[C@H](NC(=O)[C@@H]1CSSC[C@H](NC(=O)[C@@H](Cc2ccccc2)NC(=S)Nc2ccc(CCCC(CN3CCN(CC(=O)O)CCN(CC(=O)O)CC3)N(CC(=O)O)CC(=O)O)cc2)C(=O)N[C@@H](Cc2ccc(O)cc2)C(=O)N[C@H](Cc2c[nH]c3ccccc23)C(=O)N[C@@H](CCCCN)C(=O)N[C@@H]([C@@H](C)O)C(=O)N1)C(=O)O (stereo partly shown) [[^213Bi]Bi-3p-C-NETA-TATE, metal not drawn]
- activity required for cell surviving fraction of 0.1 (SF0.1) (BON-1.SSTR2): 0.1 MBq
- cell binding [2]: 3.3 ± 0.5%
- internalized share of cell binding [2]: 39.2%
- intact radiocomplex ([3]; PBS): 90%
- remaining at 5 h ([3]; human serum, read-out: intact radiocomplex): 90%

Compound: AlF-NOTA-(2×)DV1(c11sc12s) (peptide)
- IC50 (CXCR4 [4]): 1.3 nM

Compound: AlF-NOTA-DV1-k-(DV3) (peptide)
- total-bound fraction (u87.CXCR4 cells) (CXCR4 [5]): 6%
- IC50 (CXCR4 [4]): 5.3 nM

Compound: DOTA-MI-exendin-4 (from UniProt P26349 48-87) (peptide)
- affinity [6]: < 11 nM

Compound: DOTA-exendin-4 (from UniProt P26349 48-87) (peptide; other documents disagree on this pair)
- affinity [6]: < 11 nM

Compound: HYNIC-Gly-Pro-Lys-Gly-Ala-Ala-Asp [HYNIC-GPLGAAD]
- stability in human plasma [7]: 95%
- effect on platelet aggregation (platelet aggregation): no effect on platelet aggregation

- other (fibrin): 71.4%
Compound: HYNIC-Gly-Pro-Lys-Gly-Ala-Ala-Asp peptide

Compound: I-131 rituximab: radioimmunotherapy for CD20(+) B cell lymphoma
- TBR1 (plaque inflammation; all 32 patients, PET1 before I-131 rituximab, mean and SD): 1.49 ± 0.28
- TBR2 (plaque inflammation; all 32 patients, PET2 5 days after, mean and SD, P = 0.008 vs TBR1): 1.36 ± 0.21
- TBR3 (plaque inflammation; all 32 patients, PET3 1 m after, mean and SD, P = 0.002 vs TBR1): 1.35 ± 0.19
- mean TBR (plaque inflammation; patients with higher TBR1 (n = 16), PET1): 1.69
- mean TBR (plaque inflammation; patients with higher TBR1 (n = 16), PET2, P = 0.001): 1.46
- mean TBR (plaque inflammation; patients with higher TBR1 (n = 16), PET3, P < 0.001): 1.42
- mean TBR (plaque inflammation; patients with lower TBR1 (n = 16), PET1): 1.29
- mean TBR (plaque inflammation; patients with lower TBR1 (n = 16), PET2): 1.26
- mean TBR (plaque inflammation; patients with lower TBR1 (n = 16), PET3): 1.29

Compound: NOTA-MI-exendin-4 (from UniProt P26349 48-87) (peptide)
- affinity [6]: < 11 nM

Compound: NOTA-exendin-4 (from UniProt P26349 48-87) (peptide; other documents disagree on this pair)
- affinity [6]: < 11 nM

Compound: NOTA-rituximab: control IgG
- KD (HER2): no binding

- other [8]: 48.6%
- other [9]: 68%
Compound: [^177Lu]Lu-DOTA-MGS5 (peptide)
